Assay: in vitro
Settings: human, hela cells, % viability

| SMILES | viability at 28.5 h, 10 µM [%] |
| --- | --- |
| CS(=O)(=O)N1CCCc2cc(-c3csc(N)n3)ccc21 [CBK305859] | 86.4 |
| CCCNC(=O)Cn1cnc2sc(C)c(C)c2c1=O [CBK305863] | 88.8 |
| CCn1c(SCC(=O)NC2CC2)nc2ccccc21 [CBK305864] | 117 |
| Cc1c(C(C)N)cnn1-c1ccc(C#N)cc1 (centres unmarked) [CBK305869] | 80.9 |
| Cc1cc2nc(NCC3CCCO3)c3ccccc3n2n1 (centres unmarked) [CBK305871] | 99.6 |
| O=C(Cn1cnc2c(Cl)cc(Cl)cc2c1=O)N1CCCCCC1 [CBK305874] | 92 |
| Cc1ccnc(NC(=O)C2CCCN(C(=O)OC(C)(C)C)C2)c1 (centres unmarked) [CBK305875] | 82.7 |
| CC1CCC(N(C)Cc2nc3sc4c(c3c(=O)[nH]2)CCC4)CC1 (centres unmarked) [CBK305876] | 88.7 |
| COc1ccc(C)cc1CC(=O)N1CCc2c(sc3ncnc(N)c23)C1 [CBK305878] | 83.4 |
| O=C(Cn1ccc(=O)[nH]c1=O)Nc1ccc(OCC(F)(F)F)cc1 [CBK305879] | 98 |
| CCc1nn2c(=O)cc(CN3C(=O)NC(C)(c4ccco4)C3=O)nc2s1 (centres unmarked) [CBK305880] | 114 |
| COc1ccc(CCNC(=O)CCn2cncn2)cc1 [CBK305881] | 105 |
| O=C(Cn1cc(Br)ccc1=O)NC1CCN(CCc2ccccc2)CC1 [CBK305887] | 99.5 |
| CCN(Cc1ccc(C#N)cc1F)C(=O)NC(C)c1nncn1C (centres unmarked) [CBK305888] | 119 |
| Cc1nc(C)n(C2CN(S(=O)(=O)c3ccc4scnc4c3)C2)n1 [CBK305889] | 95.6 |
| CCc1onc(C)c1NC(=O)NC1CC2(CCCC2)Oc2ccccc21 (centres unmarked) [CBK305890] | 97.6 |
| COC(=O)CCSc1nc(C)nc2c1c(=O)n(C)c(=O)n2CC(C)C [CBK305891] | 82.7 |
| O=C(NCCCn1ccnc1)N1CCN(Cc2ccc(Cl)cc2)CC1 [CBK305894] | 101 |
| O=C(CN1CCCC1c1cccs1)Nc1cccc(C(=O)NC2CC2)c1 (centres unmarked) [CBK305895] | 98.5 |
| CC1CCc2c(sc3ncnc(SCC(=O)N(C)CCC#N)c23)C1 (centres unmarked) [CBK305896] | 106 |
| CN(Cc1ccccc1N1CCCC1)C(=O)Cc1cn2ccsc2n1 [CBK305897] | 78 |
| CN(CC(=O)NCc1ccc(Cl)cc1)S(=O)(=O)Cc1ccc(C#N)cc1 [CBK305899] | 92.3 |
| O=C(Cn1nnc2ccccc2c1=O)N1CCCC(C(F)(F)F)C1 (centres unmarked) [CBK305900] | 80.5 |

| SMILES | viability at 28.5 h, 10 µM [%] |
| --- | --- |
| CC(=O)Nc1cccc(C(=O)OCC(=O)N2CCC(C)CC2)c1 [CBK305905] | 98.3 |
| CCC1CCCCN1Cc1nc2c(c(=O)n(C)c(=O)n2C)n1CCOC (centres unmarked) [CBK305912] | 104 |
| CCc1ncc2c(n1)CN(Cc1cc(=O)n3cccc(C)c3n1)CC2 [CBK305914] | 84.6 |
| O=C(NCCN1CCN(C(=O)Nc2ccccc2)CC1)C1CCCC1 [CBK305915] | 95.8 |
| CN(C(=O)c1cc[nH]n1)C1CCN(c2ncnc3ccccc23)CC1 [CBK305916] | 79 |
| Cc1cc(C)n(C(C)C(=O)N2CCC(Nc3cccnc3)CC2)n1 (centres unmarked) [CBK305917] | 94.2 |
| Cc1ccc(Cc2cnc(NC(=O)C3CNC(=O)N3)s2)cc1F (centres unmarked) [CBK305919] | 97.8 |
| Cc1cc(C)n(CC2CCCN2C(=O)CCCc2ccccn2)n1 (centres unmarked) [CBK305920] | 105 |
| CCn1cc(NS(=O)(=O)c2ccc(N3CCCC3=O)cc2)cn1 [CBK305922] | 85.3 |
| CCOc1ccc(Cl)cc1CCNC(=O)NC(C)c1nnnn1C (centres unmarked) [CBK305923] | 89.2 |
| O=C(NS(=O)(=O)c1cccc(-c2nnco2)c1)C1CC1C1CCCCC1 (centres unmarked) [CBK305924] | 90.8 |
| Cc1nc(CNC(=O)NC2CCCN(c3ccn(C)n3)C2=O)c(C)s1 (centres unmarked) [CBK305926] | 95 |
| Cc1cccc(CN2CCC(NC(=O)c3cn(C(C)(C)C)nn3)CC2)c1 [CBK305927] | 92 |
| Cc1ccc(C(=O)NCC(c2ccccc2Cl)N2CCOCC2)c(=O)[nH]1 (centres unmarked) [CBK305928] | 99.3 |
| CCCn1c(SCC(=O)N2CCOCC2)nc2ccc(Br)cc2c1=O [CBK305929] | 83 |
| N#CCCn1cc(C(=O)N2CCCCC2)c(-c2ccccc2)n1 [CBK305931] | 100 |
| CN(C)C(=O)CSc1nc2cc(Cl)ccc2c(=O)n1CC1CCCO1 (centres unmarked) [CBK305932] | 97.3 |
| CCOCCCNC(=O)c1cccc(S(=O)(=O)N2CCCC2)c1 [CBK305934] | 104 |
| CC(Sc1nc2cc(Cl)ccc2c(=O)n1CC1CCCO1)C(N)=O (centres unmarked) [CBK305935] | 99.6 |
| CNC(=O)CSc1nc2cc(Cl)ccc2c(=O)n1CC1CCCO1 (centres unmarked) [CBK305937] | 86.9 |
| Cc1ccc(-c2nn(CCC#N)cc2C(=O)N2CCOCC2)cc1 [CBK305939] | 96.2 |
| COc1cccc(-c2nn(CCC#N)cc2C(=O)N2CCCCC2)c1 [CBK305942] | 101 |
| Cc1nc(-c2cccnc2)[nH]c(=O)c1CC(=O)N1CCSCC1 [CBK305944] | 90.7 |

| SMILES | viability at 28.5 h, 10 µM [%] |
| --- | --- |
| CC(C(=O)Nc1ccc(S(N)(=O)=O)cc1)N(C)Cc1cccs1 (centres unmarked) [CBK305945] | 88.8 |
| CC1CCc2c(sc3ncnc(SCC(=O)N(C)C)c23)C1 (centres unmarked) [CBK305946] | 92.9 |
| Cc1nn(C)c2ncc(S(=O)(=O)NC(C)c3cccc(F)c3)cc12 (centres unmarked) [CBK305948] | 94.9 |
| CC(=O)N1CCc2cc(Nc3ncnc4c3cnn4CCC#N)ccc21 [CBK305950] | 101 |
| Cc1cccn2c(=O)cc(CN3CCC(c4ccn[nH]4)CC3)nc12 [CBK305951] | 93.2 |
| CCOC(=O)C(Cc1ccccc1)NC(=O)c1ccc(C)nc1 (centres unmarked) [CBK305952] | 89.6 |
| CC1CCCN(CC(C)NC(=O)Cn2cnc3ccc(F)cc3c2=O)C1 (centres unmarked) [CBK305953] | 91.5 |
| CCCN1CCC(NC(=O)c2cccc(S(N)(=O)=O)c2)CC1 [CBK305956] | 90.6 |
| CCN(C)Cc1cccc(CNc2ncnc3c2cnn3CCC#N)c1 [CBK305959] | 92.2 |
| CCc1noc(CN2CCC(c3c[nH]c4ccc(OC)cc34)CC2)n1 [CBK305960] | 84.1 |
| CCOC(=O)C(CNC(=O)c1c(CC)noc1C)Cc1ccccc1 (centres unmarked) [CBK305961] | 90.8 |
| CCCc1c(C(=O)N2CCN(c3cnccn3)CC2)cnn1C [CBK305962] | 99 |
| Cc1nc(S(=O)(=O)N2CCC(C(=O)N3CCCCC3)CC2)cn1C [CBK305963] | 89.4 |
| CCOc1ncccc1CNc1ncnc2c1cnn2CCO [CBK305964] | 97 |
| COc1ccnc(N2CCN(C(=O)c3cc(C)nn3C)CC2)n1 [CBK305967] | 83.7 |
| Cc1cc(N(C)CCOc2ccccc2F)nc(N)n1 [CBK305969] | 79.6 |
| O=C(c1ccc(NC2CC2)nc1)N1CCC(CN2CCOCC2)CC1 [CBK305970] | 87.6 |
| CCOC(=O)C(CNC(=O)CNC(=O)c1ccoc1)Cc1ccccc1 (centres unmarked) [CBK305971] | 92.4 |
| CN(Cc1cccc(C#N)c1)Cc1nc2c(cnn2C)c(=O)[nH]1 [CBK305973] | 109 |
| CC(NC(=O)Cc1cccc(F)c1)c1nnc2n1CCCCC2 (centres unmarked) [CBK305975] | 85.8 |
| Cc1ccc(OCCC(=O)NCC(c2cccs2)N2CCOCC2)cc1 (centres unmarked) [CBK305976] | 90.9 |
| OCCn1ncc2c(NCc3cccnc3-n3cccn3)ncnc21 [CBK305977] | 90.6 |
| Cc1nn(CC(=O)N2CCN(Cc3ccccn3)CC2)c(C)c1Cl [CBK305978] | 93.8 |

| SMILES | viability at 28.5 h, 10 µM [%] |
| --- | --- |
| COc1ncccc1CNc1ncnc2c1cnn2CCO [CBK305980] | 116 |
| C#CCNS(=O)(=O)c1cccc(C(=O)NCC2CCCN(C(C)C)C2)c1 (centres unmarked) [CBK305981] | 109 |
| COc1ccc2[nH]cc(C3CCN(Cc4nc(C)no4)CC3)c2c1 [CBK305982] | 94.6 |
| COCc1cccc(Nc2ncnc3c2cnn3CCC#N)c1 [CBK305983] | 83.2 |
| Cc1ncc(CN(C)C(=O)Nc2cccc(C(=O)N3CCOCC3)c2)s1 [CBK305984] | 92.2 |
| Cc1cc(N2CCCC(C(=O)N3CCOCC3)C2)nc(N)n1 (centres unmarked) [CBK305985] | 76.4 |
| CNC(=O)c1cc(S(=O)(=O)N(C2CC2)C2CCc3ccccc32)cn1C (centres unmarked) [CBK305988] | 106 |
| COC(=O)c1cccc(OCCn2c(=O)c(C#N)cn(C3CC3)c2=O)c1 [CBK305990] | 98.6 |
| CC(NS(=O)(=O)c1ccccc1Cl)C(=O)N1CCCC1 (centres unmarked) [CBK305994] | 93.2 |
| COC(=O)c1ccc(N2CCN(Cc3nc(C)no3)C(C)C2)cc1 (centres unmarked) [CBK305998] | 92.3 |
| CC(C)NC(=O)Nc1ccc(C(=O)N(CCC#N)Cc2ccco2)cc1 [CBK305999] | 82.3 |
| CC1CCc2c(sc3ncnc(OCC(=O)N4CCOCC4)c23)C1 (centres unmarked) [CBK306000] | 95.9 |
| Cc1cc(Br)c(O)c(C(=O)N(C)CC(=O)Nc2cc(C)on2)c1 [CBK306002] | 94.8 |
| Cc1ccnc(NCC2CCN(Cc3cc(=O)n4ccccc4n3)C2)c1 (centres unmarked) [CBK306003] | 97.3 |
| CC1CCC(C(N)=O)CN1C(=O)c1ccc(Oc2cccc(Br)c2)nc1 (centres unmarked) [CBK306005] | 106 |
| COc1ccccc1CN(C)S(=O)(=O)c1ccc(S(N)(=O)=O)cc1 [CBK306008] | 113 |
| CCc1nnc(SC(C)C(=O)N2CCCc3ccccc32)[nH]1 (centres unmarked) [CBK306009] | 84.1 |
| N#Cc1ccnc(SCC(=O)Nc2ccc(CN3CCOCC3)cc2)c1 [CBK306010] | 103 |
| Cc1nn(C)c(C)c1NC(=O)COc1ccc(C#N)cc1 [CBK306011] | 87.5 |
| CCC(NC1CCc2nc(C)cn2C1)c1ccccc1O (centres unmarked) [CBK306012] | 85.8 |
| COc1cc(CC(=O)N2CCc3c(sc4ncnc(N)c34)C2)ccc1C [CBK306013] | 103 |
| CN(CCN(C)C(=O)c1cc2sccc2[nH]1)CC(F)F [CBK306014] | 103 |
| Cc1cc(NC(=O)CS(=O)(=O)c2cccc(C(F)(F)F)c2)on1 [CBK306015] | 85.5 |
